Here are results for one molecule from patent US20080188666A1, “LINEAR PHENYL-SUBSTITUTED INDAZOLES AND INDOLES, A PROCESS FOR THEIR PRODUCTION AND THEIR USE AS ANTI-INFLAMMATORY AGENTS” (priority 2006, published 2008).

Test [1] has as its target T1, glucocorticoid receptor (GR) (Homo sapiens, UniProt P04150).
T1 construct: made in house; host or cells: Sf9 cells infected with recombinant baculovirus (cytosol preparation)
T1 sequence (P04150 1-777): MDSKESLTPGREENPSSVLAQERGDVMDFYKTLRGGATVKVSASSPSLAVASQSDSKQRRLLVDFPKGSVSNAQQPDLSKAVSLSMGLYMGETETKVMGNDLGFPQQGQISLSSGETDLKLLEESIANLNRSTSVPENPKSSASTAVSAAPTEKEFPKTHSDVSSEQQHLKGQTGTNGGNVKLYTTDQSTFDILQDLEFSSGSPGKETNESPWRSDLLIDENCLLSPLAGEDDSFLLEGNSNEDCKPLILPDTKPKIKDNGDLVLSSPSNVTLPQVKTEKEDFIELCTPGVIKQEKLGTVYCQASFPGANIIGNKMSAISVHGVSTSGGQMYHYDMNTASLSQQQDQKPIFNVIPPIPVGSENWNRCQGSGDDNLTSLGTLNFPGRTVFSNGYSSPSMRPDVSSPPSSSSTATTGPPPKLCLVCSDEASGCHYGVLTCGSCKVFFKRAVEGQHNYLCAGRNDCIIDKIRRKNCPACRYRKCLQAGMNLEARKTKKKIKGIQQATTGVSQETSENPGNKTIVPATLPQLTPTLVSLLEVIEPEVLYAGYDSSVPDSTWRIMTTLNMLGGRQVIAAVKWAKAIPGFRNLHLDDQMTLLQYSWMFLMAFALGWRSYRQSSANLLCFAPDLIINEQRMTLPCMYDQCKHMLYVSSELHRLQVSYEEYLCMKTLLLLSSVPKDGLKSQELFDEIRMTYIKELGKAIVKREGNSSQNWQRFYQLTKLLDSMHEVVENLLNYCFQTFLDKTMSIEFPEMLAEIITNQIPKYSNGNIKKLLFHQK
The test can be described thus: binding to recombinantly produced glucocorticoid receptor, Sf9 cytosol, [3H]-dexamethasone reference. The following applies: recombinant GR. The text has this:
(§1) The binding of the substances to the glucocorticoid receptor (GR) and other steroid hormone receptors (mineral corticoid receptor (MR), progesterone receptor (PR) and androgen receptor (AR)) is examined with the aid of recombinantly produced receptors. Cytosol preparations of Sf9 cells, which had been infected with recombinant baculoviruses, which code for the GR, are used for the binding studies. In comparison to reference substance [^3H]-dexamethasone, the substances show a high to very high affinity to GR. IC50(GR)=6.0 nM was thus measured for the compound from Example B7; IC50(MR), IC50(PR), IC50(AR)>1 μmol.

For test [2], the target named is T2, mineral corticoid receptor (MR) (Homo sapiens, UniProt P08235).
T2 construct: made in house
T2 sequence (P08235 1-984): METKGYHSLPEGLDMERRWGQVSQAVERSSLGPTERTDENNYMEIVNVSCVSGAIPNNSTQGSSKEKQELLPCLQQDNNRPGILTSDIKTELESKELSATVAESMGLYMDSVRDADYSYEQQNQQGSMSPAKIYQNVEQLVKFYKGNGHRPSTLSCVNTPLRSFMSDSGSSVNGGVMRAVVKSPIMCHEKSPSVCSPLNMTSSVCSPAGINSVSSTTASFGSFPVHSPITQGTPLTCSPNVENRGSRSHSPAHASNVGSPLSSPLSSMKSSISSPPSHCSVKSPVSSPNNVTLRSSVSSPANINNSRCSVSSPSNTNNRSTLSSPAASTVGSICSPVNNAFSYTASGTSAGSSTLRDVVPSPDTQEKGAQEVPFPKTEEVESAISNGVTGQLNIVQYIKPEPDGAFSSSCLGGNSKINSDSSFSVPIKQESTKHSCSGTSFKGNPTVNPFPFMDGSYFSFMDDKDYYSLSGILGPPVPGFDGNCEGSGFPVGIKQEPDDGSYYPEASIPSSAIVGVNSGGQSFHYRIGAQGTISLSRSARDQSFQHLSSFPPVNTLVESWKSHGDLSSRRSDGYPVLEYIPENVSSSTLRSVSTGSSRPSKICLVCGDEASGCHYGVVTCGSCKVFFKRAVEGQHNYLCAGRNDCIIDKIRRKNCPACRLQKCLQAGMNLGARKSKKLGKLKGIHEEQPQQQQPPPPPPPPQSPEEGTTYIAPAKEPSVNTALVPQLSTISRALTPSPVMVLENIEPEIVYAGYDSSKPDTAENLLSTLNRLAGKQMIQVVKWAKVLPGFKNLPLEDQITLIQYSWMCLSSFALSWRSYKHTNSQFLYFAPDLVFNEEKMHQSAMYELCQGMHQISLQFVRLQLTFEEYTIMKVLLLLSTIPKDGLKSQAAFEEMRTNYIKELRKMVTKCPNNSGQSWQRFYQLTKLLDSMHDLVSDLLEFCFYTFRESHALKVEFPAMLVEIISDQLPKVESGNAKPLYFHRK
The test can be described thus: binding to recombinantly produced mineral corticoid receptor. As to conditions: recombinant receptor.
Description: as §1

The target of test [3] is T3, progesterone receptor (PR) (Homo sapiens, UniProt P06401).
T3 construct: made in house
T3 sequence (P06401 1-933): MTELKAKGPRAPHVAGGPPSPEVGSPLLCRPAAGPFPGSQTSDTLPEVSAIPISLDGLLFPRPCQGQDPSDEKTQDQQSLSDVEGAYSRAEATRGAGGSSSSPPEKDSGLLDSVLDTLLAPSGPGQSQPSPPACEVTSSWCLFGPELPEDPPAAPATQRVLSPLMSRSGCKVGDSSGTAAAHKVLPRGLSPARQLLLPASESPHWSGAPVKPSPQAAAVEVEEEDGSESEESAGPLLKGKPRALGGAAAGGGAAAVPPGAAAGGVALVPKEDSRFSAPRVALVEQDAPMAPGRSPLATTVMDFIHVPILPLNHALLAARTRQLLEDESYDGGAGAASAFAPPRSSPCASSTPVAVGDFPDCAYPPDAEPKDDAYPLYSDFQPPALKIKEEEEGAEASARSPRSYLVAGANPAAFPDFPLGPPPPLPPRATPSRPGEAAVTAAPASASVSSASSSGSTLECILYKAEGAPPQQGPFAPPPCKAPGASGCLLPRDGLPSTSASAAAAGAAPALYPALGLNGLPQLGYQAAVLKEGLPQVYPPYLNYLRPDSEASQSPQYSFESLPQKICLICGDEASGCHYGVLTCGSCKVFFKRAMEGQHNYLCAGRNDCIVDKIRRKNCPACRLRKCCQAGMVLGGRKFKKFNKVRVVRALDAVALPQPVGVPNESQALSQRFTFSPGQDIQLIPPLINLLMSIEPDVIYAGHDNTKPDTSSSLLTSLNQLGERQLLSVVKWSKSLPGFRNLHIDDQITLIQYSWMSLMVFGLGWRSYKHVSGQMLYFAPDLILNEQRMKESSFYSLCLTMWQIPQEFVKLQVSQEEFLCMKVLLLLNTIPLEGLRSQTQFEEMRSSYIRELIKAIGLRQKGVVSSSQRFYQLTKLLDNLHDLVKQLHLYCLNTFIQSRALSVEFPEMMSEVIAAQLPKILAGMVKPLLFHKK
The test can be described thus: binding to recombinantly produced progesterone receptor. As to conditions: recombinant receptor.
Description: as §1

The target in the next test is T4, androgen receptor (AR) (Homo sapiens, UniProt P10275).
T4 construct: made in house
T4 sequence (P10275 1-920): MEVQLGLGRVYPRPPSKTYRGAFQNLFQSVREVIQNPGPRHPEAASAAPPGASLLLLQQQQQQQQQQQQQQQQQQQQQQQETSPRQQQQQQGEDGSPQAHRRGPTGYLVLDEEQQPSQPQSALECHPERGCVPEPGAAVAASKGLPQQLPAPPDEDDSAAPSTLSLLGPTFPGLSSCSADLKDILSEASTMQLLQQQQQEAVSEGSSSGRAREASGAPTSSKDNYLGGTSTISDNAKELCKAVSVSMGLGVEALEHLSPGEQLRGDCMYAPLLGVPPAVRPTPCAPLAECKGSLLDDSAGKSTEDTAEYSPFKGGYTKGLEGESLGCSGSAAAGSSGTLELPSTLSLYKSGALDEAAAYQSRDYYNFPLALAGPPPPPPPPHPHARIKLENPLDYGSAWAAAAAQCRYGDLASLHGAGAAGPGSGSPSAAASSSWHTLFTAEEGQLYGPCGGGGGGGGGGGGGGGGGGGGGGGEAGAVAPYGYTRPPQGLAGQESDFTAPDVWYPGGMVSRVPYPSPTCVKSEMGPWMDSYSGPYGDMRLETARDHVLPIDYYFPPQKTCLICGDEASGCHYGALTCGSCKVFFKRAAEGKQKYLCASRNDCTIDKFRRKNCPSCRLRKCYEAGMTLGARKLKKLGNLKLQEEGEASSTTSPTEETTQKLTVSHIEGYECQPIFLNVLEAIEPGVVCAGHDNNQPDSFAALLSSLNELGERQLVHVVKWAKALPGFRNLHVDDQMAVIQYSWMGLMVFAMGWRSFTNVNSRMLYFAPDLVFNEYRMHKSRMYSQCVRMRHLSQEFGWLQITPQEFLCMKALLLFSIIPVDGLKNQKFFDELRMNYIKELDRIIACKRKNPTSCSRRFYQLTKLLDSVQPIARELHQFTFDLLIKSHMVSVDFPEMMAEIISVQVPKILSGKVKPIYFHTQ
The test can be described thus: binding to recombinantly produced androgen receptor. The following applies: recombinant receptor.
Description: as §1

The test system of test [4] is secretion of cytokine IL-8 in human monocyte cell line THP-1. The test can be described thus: inhibition of LPS-triggered IL-8 secretion in THP-1 cells (ELISA). The class given is cell-based. The protocol: The concentration of the cytokines was determined in the supernatant by means of commercially available ELISA kits.

The term IC50 denotes the concentration that inhibits the measured activity by half. Turning to `CC(C)(CC(O)(CNc1cccc2c1cnn2-c1ccc(F)nc1)C(F)(F)F)c1cc(F)ccc1O` (stereo not drawn) [Example B7, 4-(5-Fluoro-2-hydroxyphenyl)-4-methyl-1-{[1-(6-fluoropyridin-3-yl)indazol-4-yl]amino}-2-(trifluoromethyl)pentan-2-ol], the IC50 in test [1] was 6 nM; in test [2] it was above 1000 nM; in test [3] it was above 1000 nM; at androgen receptor (AR), above 1000 nM; in test [4] (Homo sapiens, THP-1, supernatant ELISA, read-out: IC50(IL8)) it was 0.72 nM. The “eff. relative to dexamethasone (IL-8 inhibition)” value in test [4] (THP-1) is 97%.
